Patent publication US9023821B2, “Use of MicroRNA for treating diseases associated with a dysfunction of the cilia in multiciliated epithelial cells” (Centre National de la Recherche Scientifique, priority 2009, dated 2015)

How the values were obtained:
[1] = test system: human airway epithelial cells (HAECs); assay: High-throughput sequencing (HTS) of miRNAs at four stages of differentiation of HAECs; settings: for Modulation (ratio of the level of intensity of expression in log2 in two stages of differentiation) measured by high-throughput sequencing, D7 − D0 / Modulation (ratio of the level of intensity of expression in log2 in two stages of differentiation) measured by high-throughput sequencing, FC − D7 / Modulation (ratio of the level of intensity of expression in log2 in two stages of differentiation) measured by high-throughput sequencing, WD − D0 / Modulation (ratio of the level of intensity of expression in log2 in two stages of differentiation) measured by high-throughput sequencing, WD − FC / Level of intensity of expression in log2 measured by high-throughput sequencing, D0 / Level of intensity of expression in log2 measured by high-throughput sequencing, D7 / Level of intensity of expression in log2 measured by high-throughput sequencing, FC / Level of intensity of expression in log2 measured by high-throughput sequencing, WD: Table VI; for Level of intensity of expression in log2 At the differentiated stage (WD) measured in HTS: healthy human airway epithelial tissue; for Level of intensity of expression in log2 measured by high-throughput sequencing, D0: stage D0; for Level of intensity of expression in log2 measured by high-throughput sequencing, D7: stage D7; for Level of intensity of expression in log2 measured by high-throughput sequencing, FC: stage FC; for Level of intensity of expression in log2 At the differentiated stage (WD) measured in HTS / Level of intensity of expression in log2 measured by high-throughput sequencing, WD: stage WD
How it was run: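 Total RNA including small RNAs was taken from air-liquid interface cultures at ALI-D0, ALI-D7, ALI-FC (first cilia, ~14 days) and ALI-WD (~21 days). SOLiD small-RNA libraries were sequenced, and 5p/3p reads were normalized to 10^6 sequences and expressed as percentage abundance.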

[2] = test system: human airway epithelial cells (HAECs); assay: Agilent miRNA chips, miRNA expression at four stages of differentiation of HAECs; settings: for Modulation (ratio of the level of intensity of expression in log2 in two stages of differentiation) measured with the Agilent chips, D7 − D0 / Modulation (ratio of the level of intensity of expression in log2 in two stages of differentiation) measured with the Agilent chips, FC − D7 / Modulation (ratio of the level of intensity of expression in log2 in two stages of differentiation) measured with the Agilent chips, WD − D0 / Modulation (ratio of the level of intensity of expression in log2 in two stages of differentiation) measured with the Agilent chips, WD − FC / Level of intensity of expression in log2 measured with the Agilent chips, D0 / Level of intensity of expression in log2 measured with the Agilent chips, D7 / Level of intensity of expression in log2 measured with the Agilent chips, FC / Level of intensity of expression in log2 measured with the Agilent chips, WD: Table VI; for Modulation (ratio of the level of intensity of expression in log2 at two stages of differentiation), FC − D7 / Modulation (ratio of the level of intensity of expression in log2 at two stages of differentiation), WD − FC: Agilent miRNA chips, Table V; for Level of intensity of expression in log2 measured with the Agilent chips, D0: stage D0; for Level of intensity of expression in log2 measured with the Agilent chips, D7: stage D7; for Level of intensity of expression in log2 measured with the Agilent chips, FC: stage FC; for Level of intensity of expression in log2 measured with the Agilent chips, WD: stage WD
How it was run: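 Microarray v2 (866 human + 89 viral miRNAs; miRBase v.12.0). Input: RNA from the same donors as sequencing. Labelling/hybridization per kit protocol. Profiles cross-checked vs sequencing.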

[3] = test system: basal cells and pyramidal cells of the airway epithelium; assay: miRNA expression in sorted basal cells versus pyramidal cells (ciliated + secretory), HTS and Agilent chips; set-up: species or system human; settings: for Modulation of expression of the miRNAs in pyramidal cells (323(−)) relative to basal cells 323(+): HTS and Agilent chips; for Intensity of the level of expression in log2 in pyramidal cells (323(−)): pyramidal cells (ciliated + secretory)
How it was run: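 miRNA repertoires measured by high-throughput sequencing or Agilent arrays on total RNA from sorted airway epithelial populations of 3 donors. Sorting used CD151-PE and anti-tissue factor-FITC: double-positive basal versus double-negative ciliated/secretory cells, with DAPI-stained and aggregated cells excluded.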

| Substance | Modulation (ratio of the level of intensity of expression in log2 in two stages of differentiation) measured by high-throughput sequencing, D7 − D0 [1] | Modulation (ratio of the level of intensity of expression in log2 in two stages of differentiation) measured by high-throughput sequencing, FC − D7 [1] | Modulation (ratio of the level of intensity of expression in log2 in two stages of differentiation) measured by high-throughput sequencing, WD − D0 [1] | Modulation (ratio of the level of intensity of expression in log2 in two stages of differentiation) measured by high-throughput sequencing, WD − FC [1] | Level of intensity of expression in log2 At the differentiated stage (WD) measured in HTS [1] | Level of intensity of expression in log2 measured by high-throughput sequencing, D0 [1] | Level of intensity of expression in log2 measured by high-throughput sequencing, D7 [1] | Level of intensity of expression in log2 measured by high-throughput sequencing, FC [1] | Level of intensity of expression in log2 measured by high-throughput sequencing, WD [1] | Modulation (ratio of the level of intensity of expression in log2 in two stages of differentiation) measured with the Agilent chips, D7 − D0 [2] | Modulation (ratio of the level of intensity of expression in log2 at two stages of differentiation), FC − D7 [2] | Modulation (ratio of the level of intensity of expression in log2 in two stages of differentiation) measured with the Agilent chips, FC − D7 [2] | Modulation (ratio of the level of intensity of expression in log2 in two stages of differentiation) measured with the Agilent chips, WD − D0 [2] | Modulation (ratio of the level of intensity of expression in log2 at two stages of differentiation), WD − FC [2] | Modulation (ratio of the level of intensity of expression in log2 in two stages of differentiation) measured with the Agilent chips, WD − FC [2] | Level of intensity of expression in log2 measured with the Agilent chips, D0 [2] | Level of intensity of expression in log2 measured with the Agilent chips, D7 [2] | Level of intensity of expression in log2 measured with the Agilent chips, FC [2] | Level of intensity of expression in log2 measured with the Agilent chips, WD [2] | Modulation of expression of the miRNAs in pyramidal cells (323(−)) relative to basal cells 323(+) [3] | further results |
| --- | --- | --- | --- | --- | --- | --- | --- | --- | --- | --- | --- | --- | --- | --- | --- | --- | --- | --- | --- | --- | --- |
| hsa-miR-22: human miRNA, SEQ ID No. 23 (AAGCUGCCAGUUGAAGAACUGU; expressed or natural sequence; listed as Homo sapiens) | 0.80 log2 | −1.14 log2 | 0.40 log2 | 0.73 log2 | 11.22 log2 | 8.89 log2 | 9.69 log2 | 8.55 log2 | 9.29 log2 | 1.09 log2 | −0.66 log2 | −0.66 log2 | 0.48 log2 | 0.05 log2 | 0.05 log2 | 10.67 log2 | 11.75 log2 | 11.10 log2 | 11.15 log2 | −1.73 | Intensity of the level of expression in log2 in basal cells (323(+)) [3]: 8.81 log2; Intensity of the level of expression in log2 in pyramidal cells (323(−)) [3]: 7.07 log2 |
| hsa-miR-106b: human miRNA, SEQ ID No. 2 (UAAAGUGCUGACAGUGCAGAU; expressed or natural sequence; listed as Homo sapiens) | 1.33 log2 | −0.28 log2 | 0.96 log2 | −0.09 log2 | 5.39 log2 | 4.43 log2 | 5.76 log2 | 5.48 log2 | 5.39 log2 | 1.39 log2 | −0.53 log2 | −0.53 log2 | 0.69 log2 | −0.18 log2 | −0.18 log2 | 8.08 log2 | 9.47 log2 | 8.94 log2 | 8.77 log2 | −2.05 | Intensity of the level of expression in log2 in basal cells (323(+)) [3]: 7.22 log2; Intensity of the level of expression in log2 in pyramidal cells (323(−)) [3]: 5.16 log2 |
| hsa-let-7f: human miRNA, SEQ ID No. 161 (UGAGGUAGUAGAUUGUAUAGUU; expressed or natural sequence; listed as Homo sapiens) | 0.22 log2 | −0.56 log2 | 0.11 log2 | 0.45 log2 | 5.35 log2 | 5.24 log2 | 5.46 log2 | 4.90 log2 | 5.35 log2 | 1.63 log2 | −0.73 log2 | −0.73 log2 | 1.08 log2 | 0.17 log2 | 0.17 log2 | 11.11 log2 | 12.75 log2 | 12.01 log2 | 12.19 log2 | −0.94 | Intensity of the level of expression in log2 in basal cells (323(+)) [3]: 10.82 log2; Intensity of the level of expression in log2 in pyramidal cells (323(−)) [3]: 9.88 log2 |
| hsa-miR-26a: human miRNA, SEQ ID No. 28 (UUCAAGUAAUCCAGGAUAGGCU; expressed or natural sequence; listed as Homo sapiens) | 1.31 log2 | −0.98 log2 | 3.22 log2 | 2.90 log2 | 7.75 log2 | 0.30 log2 | 1.61 log2 | 0.62 log2 | 3.52 log2 | 2.20 log2 | −0.11 log2 | −0.11 log2 | 2.15 log2 | 0.06 log2 | 0.06 log2 | 8.50 log2 | 10.70 log2 | 10.59 log2 | 10.65 log2 | −2.24 | Intensity of the level of expression in log2 in basal cells (323(+)) [3]: 9.92 log2; Intensity of the level of expression in log2 in pyramidal cells (323(−)) [3]: 7.68 log2 |
